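Dose response: 5 concentrations. Exposure: 48 h. Format: 96-well plates. Endpoint: linear interpolation; highest concentration if not reached. Abbreviation: GI50, concentration required for 50% inhibition of growth.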 Active and inactive are the calls of the source. Rule as the data show it: active = GI50 up to about 1.1 µM and inactive = higher.

Consider eleven compounds from ChEMBL document CHEMBL1201862, “PubChem BioAssay data set” (2004).

Test systems include A549; CAKI-1; COLO 205; HCC 2998; HCT-15; HOP-62; HT-29; K562; M14; MDA-MB-435; Malme-3M; RPMI-8226; RXF 393; SF-295; SK-MEL-28; SK-MEL-2; SN12C; TK-10.
Common to all, as to assay: NCI anticancer screen, dose series, 48 h

As to `COc1ccc(/N=N/c2ccc3oc(=O)c(C(=O)Nc4ccc(OC)cc4)cc3c2)cc1`, the GI50 in the experiment with A549 is 31.4 µM (inactive); with CAKI-1 it was 25.6 µM (inactive); with COLO 205 it was 20.8 µM (inactive); in the experiment on HCC 2998 it was 19.4 µM (inactive); in the experiment on HCT-15, 6.79 µM; in the experiment on HOP-62 it was 13.9 µM (inactive). The GI50 with HT-29 was 22.6 µM (inactive); in the experiment with K562, 18.1 µM (inactive); in the experiment with M14, 16.9 µM (inactive); with MDA-MB-435, 16.7 µM (inactive); in the experiment on Malme-3M, 18.6 µM (inactive); in the experiment on RPMI-8226, 16.3 µM (inactive). Also, the GI50 was 27 µM (inactive) with RXF 393; 21.3 µM (inactive) in the experiment on SF-295; 15.6 µM (inactive) with SK-MEL-28; 14 µM (inactive) in the experiment with SK-MEL-2; 14 µM (inactive) with SN12C; 22.4 µM (inactive) in the experiment on TK-10.

As to `CC1CCCN(CC(O)CN2CCCc3ccccc32)C1` (stereo unspecified), the GI50 in the experiment with A549 was > 100 µM (inactive); in the experiment with CAKI-1, > 100 µM (inactive); in the experiment with COLO 205, > 100 µM (inactive); with HCT-15, greater than 100 µM; in the experiment on HOP-62 it was > 100 µM (inactive); in the experiment on HT-29, 41.6 µM (inactive). The GI50 in the experiment with K562, in the experiment on M14, in the experiment with MDA-MB-435, in the experiment on Malme-3M, in the experiment with RPMI-8226 and in the experiment with RXF 393 was > 100 µM (inactive) throughout. Also, the GI50 with SF-295, with SK-MEL-28, in the experiment on SK-MEL-2, in the experiment with SN12C and with TK-10 was > 100 µM (inactive) each time.

For the compound `CN1C2CCC1CC(CC(=O)NC(c1ccc(F)cc1)c1ccc(F)cc1)C2` (stereo unspecified), the GI50 is > 100 µM (inactive) with A549; > 100 µM (inactive) in the experiment with CAKI-1; 21.5 µM (inactive) with COLO 205; greater than 100 µM in the experiment on HCT-15; > 100 µM (inactive) with HOP-62; 38.6 µM (inactive) in the experiment on HT-29. Also, the GI50 is 37.7 µM (inactive) with K562; 18 µM (inactive) in the experiment with M14; 35.6 µM (inactive) in the experiment with MDA-MB-435; 27.5 µM (inactive) with Malme-3M; 47 µM (inactive) in the experiment on RPMI-8226; > 100 µM (inactive) in the experiment with RXF 393. The GI50 is > 100 µM (inactive) in the experiment on SF-295; 22.5 µM (inactive) in the experiment on SK-MEL-28; 22.5 µM (inactive) in the experiment with SK-MEL-2; > 100 µM (inactive) with SN12C; > 100 µM (inactive) in the experiment on TK-10.

With `COc1cc2cc(C(=O)N3CC(CCl)c4ccc([N+](C)(C)Cc5ccccc5[N+](=O)[O-])cc43)[nH]c2c(OC)c1OC` (stereo unspecified), the GI50 is 0.314 µM (active) in the experiment with A549; 1.01 µM (active) in the experiment on CAKI-1; 2 µM (inactive) with COLO 205; 1.27 µM (inactive) in the experiment on HCC 2998; 2.14 µM in the experiment with HCT-15; 2.94 µM (inactive) in the experiment on HOP-62. Also, the GI50 with HT-29 was 0.962 µM (active); with K562, 1.71 µM (inactive); with M14, 1.67 µM (inactive); in the experiment with MDA-MB-435, 1.82 µM (inactive); with Malme-3M, 1.73 µM (inactive); in the experiment on RPMI-8226, 1.3 µM (inactive). The GI50 is 0.652 µM (active) in the experiment with RXF 393; 1.47 µM (inactive) in the experiment on SF-295; 2.46 µM (inactive) in the experiment on SK-MEL-28; 1.89 µM (inactive) in the experiment with SK-MEL-2; 4.05 µM (inactive) in the experiment with SN12C; 2.74 µM (inactive) with TK-10.

For `COc1ccc(CCCCNCc2cccc(CNCCCCc3ccc(OC)cc3)c2)cc1`, the GI50 in the experiment with A549 was 2.15 µM (inactive); with CAKI-1 it was 1.8 µM (inactive); in the experiment with COLO 205 it was 2.18 µM (inactive); in the experiment on HCC 2998 it was 0.308 µM (active); in the experiment on HCT-15, 1.77 µM; in the experiment with HOP-62 it was 2.19 µM (inactive). In addition, the GI50 in the experiment on HT-29 is 1.82 µM (inactive); with K562, 1.36 µM (inactive); with M14 it was 1.69 µM (inactive); in the experiment with MDA-MB-435, 1.79 µM (inactive); with Malme-3M it was 2 µM (inactive); in the experiment with RPMI-8226, 2.67 µM (inactive). In addition, the GI50 is 1.64 µM (inactive) with RXF 393; 1.93 µM (inactive) in the experiment with SF-295; 1.84 µM (inactive) with SK-MEL-28; 1.91 µM (inactive) with SK-MEL-2; 2.04 µM (inactive) in the experiment with SN12C; 2.07 µM (inactive) with TK-10.

Consider `COc1c2c(cc3c1C1(O)Cc4ccc5c(c4C[N+]1(C)CC3)OCO5)OCO2` (stereo unspecified), for which the GI50 in the experiment with A549 is > 100 µM (inactive); in the experiment on CAKI-1, > 100 µM (inactive); with COLO 205, 58.5 µM (inactive); in the experiment with HCC 2998, 33 µM (inactive); with HCT-15, greater than 100 µM; with HOP-62 it was > 100 µM (inactive). For the same compound, the GI50 is 33.9 µM (inactive) with HT-29; 37.3 µM (inactive) with K562; > 100 µM (inactive) in the experiment with M14; > 100 µM (inactive) with MDA-MB-435; > 100 µM (inactive) in the experiment with Malme-3M; 85.3 µM (inactive) with RPMI-8226. The GI50 with RXF 393 is 43.9 µM (inactive); in the experiment on SF-295, > 100 µM (inactive); with SK-MEL-28, > 100 µM (inactive); in the experiment on SK-MEL-2, > 100 µM (inactive); in the experiment with SN12C it was > 100 µM (inactive); in the experiment with TK-10 it was > 100 µM (inactive).

As to `CC1OC(OC2C(OC(=O)[C@]34CCC(C)(C)C[C@H]3C3=CC[C@@H]5[C@@]6(C)CC[C@H](OC7OC(C(=O)O)C(O)C(O)C7O)C(C)(C)[C@@H]6CC[C@@]5(C)[C@]3(C)C[C@H]4O)OCC(O)C2O)C(O)C(O)C1OC1OCC(OC2OCC(O)C(O)C2O)C(O)C1O` (stereo partly specified), the GI50 is 3.9 µM (inactive) with A549; 9.73 µM (inactive) in the experiment with CAKI-1; 1.89 µM (inactive) with COLO 205; 1.53 µM (inactive) in the experiment on HCC 2998; 14.7 µM with HCT-15; 13.2 µM (inactive) with HOP-62. Moreover, the GI50 is 3.4 µM (inactive) in the experiment with HT-29; 11.4 µM (inactive) with K562; 3.52 µM (inactive) with M14; 4.59 µM (inactive) with MDA-MB-435; 11.4 µM (inactive) in the experiment on Malme-3M; 10.7 µM (inactive) with RPMI-8226. Besides, the GI50 with RXF 393 was 14.3 µM (inactive); in the experiment with SF-295 it was 10.2 µM (inactive); with SK-MEL-28 it was 3.44 µM (inactive); with SK-MEL-2 it was 2.96 µM (inactive); in the experiment with SN12C it was 2.42 µM (inactive).

Turning to `NC(=O)c1cn(C2OC(CO)C(O)C2O)c2nc[n+]([O-])c(N)c12` (stereo unspecified), the GI50 with A549 is 0.285 µM (active); in the experiment with CAKI-1, 0.0497 µM (active); in the experiment on COLO 205, 0.201 µM (active); with HCT-15, 0.0735 µM; in the experiment with HOP-62 it was 0.133 µM (active); with HT-29, 0.143 µM (active). Also, the GI50 in the experiment with K562 was 0.34 µM (active); with M14, 0.111 µM (active); in the experiment with MDA-MB-435, 0.167 µM (active); in the experiment with Malme-3M, 0.0398 µM (active); in the experiment with RPMI-8226 it was 0.266 µM (active); with RXF 393 it was 0.564 µM (active). The GI50 in the experiment on SF-295 is 0.262 µM (active); in the experiment with SK-MEL-28, 0.341 µM (active); with SK-MEL-2, 0.157 µM (active); with SN12C it was 0.0912 µM (active); in the experiment on TK-10 it was 0.0324 µM (active).

With `CC1OC(O[C@@H]2OC=C(C=O)[C@@]3(O)CC[C@H](C)[C@@H]23)C(O)C(O)C1O` (stereo partly specified), the GI50 in the experiment with A549 was > 100 µM (inactive); with CAKI-1 it was > 100 µM (inactive); in the experiment on COLO 205, > 100 µM (inactive); in the experiment on HCC 2998 it was > 100 µM (inactive); with HCT-15, greater than 100 µM; with HOP-62, > 100 µM (inactive). Also, the GI50 in the experiment with HT-29, in the experiment on K562, with M14, in the experiment with MDA-MB-435, with Malme-3M and in the experiment with RPMI-8226 was > 100 µM (inactive) throughout. Moreover, the GI50 in the experiment on RXF 393, with SF-295, in the experiment on SK-MEL-28, with SK-MEL-2, in the experiment on SN12C and in the experiment on TK-10 was > 100 µM (inactive) throughout.

With `CC1OC(OC2C(O[C@H]3CC[C@@]4(C)[C@@H](CC[C@@H]5[C@@H]4CC[C@]4(C)[C@@H]6[C@H](C[C@@H]54)O[C@]4(CC[C@@H](C)CO4)[C@H]6C)C3)OC(CO)C(OC3OC(CO)C(O)C(OC4OCC(O)C(O)C4O)C3OC3OCC(O)C(O)C3O)C2O)C(O)C(O)C1O` (stereo partly specified), the GI50 in the experiment with A549 is 0.336 µM (active); in the experiment with CAKI-1, 0.706 µM (active); with COLO 205, 0.351 µM (active); in the experiment with HCC 2998, 1.63 µM (inactive); with HCT-15 it was 1.21 µM; with HOP-62, 0.783 µM (active). In addition, the GI50 with HT-29 was 0.495 µM (active); with M14, 0.434 µM (active); in the experiment on MDA-MB-435, 1.42 µM (inactive); in the experiment with Malme-3M it was 1.26 µM (inactive); in the experiment with RPMI-8226, 0.593 µM (active); with RXF 393 it was 0.54 µM (active). For the same compound, the GI50 is 0.904 µM (active) with SF-295, 0.745 µM (active) in the experiment with SK-MEL-28, 1.02 µM (active) in the experiment on SK-MEL-2 and 1.66 µM (inactive) with TK-10.

For `COC(=O)C(/C(=N/N)C(=O)Nc1ccc(C)c(C)c1)c1nc2ccc(Cl)cc2nc1O` (stereo unspecified), the GI50 is > 100 µM (inactive) with A549; > 100 µM (inactive) in the experiment on CAKI-1; > 100 µM (inactive) in the experiment on HCC 2998; greater than 100 µM with HCT-15; > 100 µM (inactive) in the experiment on HOP-62; > 100 µM (inactive) with HT-29. For the same compound, the GI50 in the experiment on K562, with M14, in the experiment with MDA-MB-435, in the experiment on Malme-3M, in the experiment with RPMI-8226 and with RXF 393 was > 100 µM (inactive) each time. Further, the GI50 with SF-295, in the experiment on SK-MEL-28, in the experiment with SK-MEL-2, in the experiment with SN12C and with TK-10 was > 100 µM (inactive) throughout.
